Assay: Population PK (PPK) model of MDMA and MDA (NONMEM)
Parameters: species or system human
Description: This example describes the methodology that was used to characterize the PPK of MDMA and its active minor metabolite MDA and the related model-based simulations.
For the PPK analysis, an individual was defined as evaluable if the following criteria were satisfied: • 1. Received at least one dose of MDMA • 2. Had at least one measurable MDMA observation with associated sampling time and dosing information for the MDMA modeling • 3. Had at least one measurable paired MDMA/MDA observation with associated sampling time and dosing information for the MDMA modeling
The evaluation of the impact of covariates on the MDMA and MDA PPK models focused on the most clinically relevant covariates. Prior to covariate selection, a correlation matrix was generated to determine the correlation between covariates. Only the most significant covariate among the highly correlated covariates was included in the model.
Software Nonlinear mixed-effects modeling software (NONMEM®; version 7.4; ICON, Hanover, MD, US), a software package for nonlinear mixed-effects analysis was used for the PPK modeling. R (version 4.0.2) was used for simulations (e.g., to derive exposure measures for subsequent model application analysis).
Algorithms for the Development of the Population PK Model Plasma concentration-time data was analyzed using a nonlinear mixed effects modeling approach. The first-order conditional estimation method of NONMEM with interaction (FOCE INTER) was used for PPK model development.
One-, and two-compartment models were evaluated for MDMA based on the shape of the observed concentration-time profile. MDMA absorption was evaluated in two ways: as a first-order process and as a sequential zero-order process followed by first-order absorption. MDA was developed as a sequential model, with one-, two, and three-compartment models tested.
They were modeled assuming a log-normal distribution as given by the following expression: θki=θk×e^ηk^i where θki denotes the k^th parameter value for the i^th patient, θk denotes the typical parameter value, and ηki denotes the inter-individual random effect for the i^th patient—assumed to have mean of 0 (zero) and variance ωk^2. Collectively, the vector of random effects (across the parameters indexed by k) has the covariance matrix Ω. Covariance matrix structures including diagonal and blocked diagonal structures were evaluated after the completion of covariate model building. The residual error structure was assumed to follow an additive, proportional, or combined additive and proportional error model described by the following:
The subset of covariate-parameter relationships to be included was selected based on exploratory graphical analysis, mechanistic plausibility, and scientific and clinical interest. […] This was either the covariate with the strongest influence as determined by exploratory graphical analysis or the variable that is most meaningful from a clinical, biological, or practical perspective. Continuous covariates were preferred over categorized covariates with the same meaning.
However, graphical covariate analysis can be relied on only if n-shrinkage in the respective population model parameters is low. Covariates that fulfilled the above criteria were tested in a stepwise process. The covariate selection was performed using a forward addition process followed by backward elimination. The likelihood ratio test was used to evaluate the significance of incorporating or removing fixed effects into the population model based on significance levels that were set a priori. For forward addition and backward elimination, significance levels of 0.01 and 0.001 were employed, respectively. The improvement of the model relative to the base model was compared after each of the covariates was added univariately, and the model with the largest improvement was kept for the next evaluation step, given that there was an overall statistical significance supporting the inclusion of the respective covariate. […]

[1] = MPXF (N =16), population parameter, IIV not included
[2] = 5th percentile of body weight (52 kg)
[3] = 95th percentile of body weight (97 kg)

In the case of `CC(N)Cc1ccc2c(c1)OCO2` (stereo not shown) [MDA, 3,4-methylenedioxyamphetamine], the “MDA Clearance, CLM, post hoc Geo. mean” value (MPXF (N =16)) is reported as 29.7 L/h, the “MDA Intercompartmental Clearance, QM, post hoc Geo. mean” value (MPXF (N =16)) is reported as 68.4 L/h and the “MDA Central Volume, V3” value [1] is reported as 20.8 L. The “CLM, base model estimate” value (base MDA model) was 35.6 L/h, the “IIV on CLM” value (base MDA model) was 37.7 and the “IIV on QM” value (base MDA model) was 55.8. The “IIV on V4” value (base MDA model) was 43.5, the “V3, base model estimate” value (base MDA model) was 19.4 L and the “lower V4 (MDA peripheral volume of distribution)” value (female compared to male subjects) was 18%. The “Body weight effect on CLM, Bootstrap median” value (final MDA model) was 0.585, the “Body weight effect on CLM, estimate” value (final MDA model) was 0.580 and the “Body weight effect on QM, Bootstrap median” value (final MDA model) was 1.02. The “Body weight effect on QM, estimate” value (final MDA model) was 1.00, the “CLM, Bootstrap median” value (final MDA model) was 83.9 L/h and the “CLM, final model estimate” value (final MDA model) was 79.6 L/h. The “Sex effect on V4, Bootstrap median” value (final MDA model) was −0.18, the “V4, Bootstrap median” value (final MDA model) was 213 L and the “V4, final model estimate” value (final MDA model) was 213 L.

In the case of `CNC(C)Cc1ccc2c(c1)OCO2` (stereo not shown) [MDMA, 3,4-methylenedioxymethamphetamine], the “higher MDMA AUC0-44 relative to reference individual” value [2] is reported as 30%, the “higher MDMA Cmax relative to reference individual” value [2] is reported as 30% and the “lower MDMA AUC0-44 relative to reference individual” value [3] is reported as 28%. For the same compound, the “lower MDMA Cmax relative to reference individual” value [3] was 25%, the “Cmax MDMA, post hoc Geo. mean” value (MPKF Fasted 120 mg (N = 16)) was 246.0 ng/mL and the “Cmax MDMA, post hoc Geo. mean” value (MPKF Fed 120 mg (N = 14)) was 197.3 ng/mL. For the same compound, the “Post Hoc Absorption Rate, Geo. mean (Geo. CV %)” value (MPKF Fed (N = 14), high fat meal) was 0.6 (50.2) 1/h, the “Post Hoc Absorption Rate, Geo. mean (Geo. CV %)” value (MPKT Fasted (N = 16)) was 3.5 (47.0) 1/h and the “Duration of zero order absorption, D1, post hoc Geo. mean” value (MPXF (N =16)) was 0.4 h. For the same compound, the “Half-life MDMA, t½, post hoc Geo. mean” value (MPXF (N =16)) was 8.7 h, the “MDMA Apparent Volume of Distribution, V, post hoc Geo. mean” value (MPXF (N =16)) was 368.3 L and the “Lag time, ALAG” value [1] was 0.3 h. For the same compound, the “time to complete clearance (5 half-lives)” value (assumed) was 38.5 to 43.5 h, the “ALAG1, base model estimate” value (base MDMA model) was 0.312 h and the “CL/F, base model estimate” value (base MDMA model) was 38.3 L/h. The “D1, base model estimate” value (base MDMA model) was 0.242 h, the “IIV on D1” value (base MDMA model) was 159 and the “IIV on Ka” value (base MDMA model) was 55.9. For the same compound, the “IIV on V2/F” value (base MDMA model) was 28.5, the “V2/F, base model estimate” value (base MDMA model) was 444 L and the “ka, base model estimate” value (base MDMA model) was 1.14 h⁻¹. The “ALAG1, Bootstrap median” value (final MDMA model) was 0.323 h, the “ALAG1, final model estimate” value (final MDMA model) was 0.322 h and the “Body weight effect on V2/F, Bootstrap median” value (final MDMA model) was 0.884. For the same compound, the “Body weight effect on V2/F, estimate” value (final MDMA model) was 0.885, the “CL/F, Bootstrap median” value (final MDMA model) was 41.8 L/h and the “CL/F, final model estimate” value (final MDMA model) was 41.5 L/h. The “D1, Bootstrap median” value (final MDMA model) was 0.271 h, the “D1, final model estimate” value (final MDMA model) was 0.304 h and the “Fasted status effect on KA, Bootstrap median” value (final MDMA model) was 1.08. For the same compound, the “Fasted status effect on KA, estimate” value (final MDMA model) was 1.93, the “Fed status effect on KA, Bootstrap median” value (final MDMA model) was −0.496 and the “Fed status effect on KA, estimate” value (final MDMA model) was −0.484. The “IIV on D1” value (final MDMA model) was 153, the “IIV on KA” value (final MDMA model) was 60.2 and the “IIV on V2/F” value (final MDMA model) was 19.9. For the same compound, the “Study effect on V2/F, Bootstrap median” value (final MDMA model) was −0.267, the “Study effect on V2/F, estimate” value (final MDMA model) was −0.263 and the “V2/F, Bootstrap median” value (final MDMA model) was 461 L. For the same compound, the “V2/F, final model estimate” value (final MDMA model) was 462 L, the “ka, Bootstrap median” value (final MDMA model) was 1.17 h⁻¹ and the “ka, final model estimate” value (final MDMA model) was 1.17 h⁻¹. The “lower Ka” value (subjects fed a high fat diet) was 49%.

Reference: US20250134855A1, “CO[…] AND METHODS OF USING SAME” (LYKOS THERAPEUTICS, INC., priority 2022, published 2025)
